The results in this text go back to US20070185095A1, “Fused heterocyclic compounds and their use as metabotropic glutamate receptor antagonists” (AstraZeneca AB, priority 2004, published 2007).

This assay addresses T1, human mGluR5d (Homo sapiens, UniProt P41594).
T1 construct: expressed in transfected cells
Briefly: FLIPR assay of [Ca2+]i mobilization in cells expressing human mGluR5d (Group I receptor antagonist activity). Format: cell-based. The following applies: antagonist block of agonist challenge. The source says:
The pharmacological properties of the compounds of the invention can be analyzed using standard assays for functional activity. Examples of glutamate receptor assays are well known in the art as described in for example Aramori et al., Neuron 8:757 (1992), Tanabe et al., Neuron 8:169 (1992), Miller et al., J. Neuroscience 15: 6103 (1995), Balazs, et al., J. Neurochemistry 69:151 (1997). The methodology described in these publications is incorporated herein by reference. Conveniently, the compounds of the invention can be studied by means of an assay that measures the mobilization of intracellular calcium, [Ca^2+]i in cells expressing mGluR5. […]
FLIPR experiments were done using a laser setting of 0.800 W and a 0.4 second CCD camera shutter speed. […] After each addition of the compound, the fluorescence signal was sampled 50 times at 1 second intervals followed by 3 samples at 5 second intervals. Responses were measured as the peak height of the response within the sample period. […]
For FLIPR analysis, cells expressing human mGluR5d as described in WO97/05252 were seeded on collagen coated clear bottom 96-well plates with black sides and analysis of [Ca^2+]i mobilization was performed 24 h following seeding. […] After each addition the fluorescence signal was sampled 50 times at 1 second intervals followed by 3 samples at 5 second intervals. […]

In general, IC50 refers to the point on the concentration scale where inhibition reaches its midpoint. A higher IC50 goes with a need for much substance.

T1 sequence (P41594 21-942 isoform P41594-3 limits assumed): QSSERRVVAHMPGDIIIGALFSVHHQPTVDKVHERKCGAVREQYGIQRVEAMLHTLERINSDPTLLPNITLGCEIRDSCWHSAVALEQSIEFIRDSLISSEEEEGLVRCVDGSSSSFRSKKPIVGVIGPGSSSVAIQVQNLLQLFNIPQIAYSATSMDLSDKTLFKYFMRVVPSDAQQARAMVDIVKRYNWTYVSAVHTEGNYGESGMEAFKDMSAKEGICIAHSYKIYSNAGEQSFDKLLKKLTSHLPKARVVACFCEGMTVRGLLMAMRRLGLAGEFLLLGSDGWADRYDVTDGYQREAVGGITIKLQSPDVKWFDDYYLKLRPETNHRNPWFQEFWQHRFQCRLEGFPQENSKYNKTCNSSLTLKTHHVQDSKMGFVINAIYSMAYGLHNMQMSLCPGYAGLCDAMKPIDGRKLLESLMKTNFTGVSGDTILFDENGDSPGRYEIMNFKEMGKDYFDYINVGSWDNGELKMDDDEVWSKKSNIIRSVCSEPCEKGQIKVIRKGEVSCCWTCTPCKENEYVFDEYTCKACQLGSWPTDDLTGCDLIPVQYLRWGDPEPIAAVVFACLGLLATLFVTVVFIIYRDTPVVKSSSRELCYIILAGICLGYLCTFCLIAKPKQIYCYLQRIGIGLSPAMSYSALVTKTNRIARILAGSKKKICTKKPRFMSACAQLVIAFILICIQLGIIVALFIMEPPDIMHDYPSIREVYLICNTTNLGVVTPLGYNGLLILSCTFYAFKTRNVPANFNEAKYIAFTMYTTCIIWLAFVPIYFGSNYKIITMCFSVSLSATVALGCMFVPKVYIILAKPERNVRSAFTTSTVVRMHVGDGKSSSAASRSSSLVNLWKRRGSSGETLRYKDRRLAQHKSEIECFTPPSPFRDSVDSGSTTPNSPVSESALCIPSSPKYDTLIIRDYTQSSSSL

For the compound `Clc1cccc(-c2nc(CC3CCn4c(-c5ccncc5)nnc43)no2)c1` (centres unmarked) [7-{[5-(3-chlorophenyl)-1,2,4-oxadiazol-3-yl]methyl}-3-pyridin-4-yl-6,7-dihydro-5H-pyrrolo[2,1-c][1,2,4]triazole], the IC50 stood at 0.049 µM.

The compound `CC(c1noc(-c2cccc(Cl)c2)n1)N1CCCCn2c(-c3ccncc3)nnc21` (centres unmarked) [9-{1-[5-(3-chlorophenyl)-1,2,4-oxadiazol-3-yl]ethyl}-3-pyridin-4-yl-6,7,8,9-tetrahydro-5H-[1,2,4]triazolo[4,3-a][1,3]diazepine] returned an IC50 of 0.081 µM.
